The record followed here is ChEMBL document CHEMBL1150600, “Callyspongynic acid, a polyacetylenic acid which inhibits alpha-glucosidase, from the marine sponge Callyspongia truncata” (J Nat Prod, 2002).

The structures appear in SMILES notation. Activity calls are given as the source filed them. The rule behind the calls is not given here.

Experiment [1] in a line: Inhibition of trypsin at 100 ug/ml.
Experiment [2] addresses Prothrombin (Homo sapiens) (UniProt P00734). Kind of experiment: Inhibition of thrombin at 100 ug/ml.
In experiment [3] the target is T1, Cytosolic beta-glucosidase (Homo sapiens) (UniProt Q9H227).
T1 sequence (whole entry): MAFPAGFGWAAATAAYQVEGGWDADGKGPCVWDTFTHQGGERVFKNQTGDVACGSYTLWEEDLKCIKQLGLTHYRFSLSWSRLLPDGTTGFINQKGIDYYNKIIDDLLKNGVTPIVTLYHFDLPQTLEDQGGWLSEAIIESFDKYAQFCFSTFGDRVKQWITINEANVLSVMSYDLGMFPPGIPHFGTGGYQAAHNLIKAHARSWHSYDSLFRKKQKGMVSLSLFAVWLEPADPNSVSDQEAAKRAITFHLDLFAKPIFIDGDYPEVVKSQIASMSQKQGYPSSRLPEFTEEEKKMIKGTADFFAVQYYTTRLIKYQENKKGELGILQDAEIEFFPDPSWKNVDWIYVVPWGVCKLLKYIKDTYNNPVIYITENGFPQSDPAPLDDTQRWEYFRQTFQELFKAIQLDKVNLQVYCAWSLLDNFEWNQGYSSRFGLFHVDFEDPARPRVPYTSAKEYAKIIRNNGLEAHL
Description: Inhibition of beta-glucosidase at 100 ug/ml.

Experiment [4] addresses T2, Beta-galactosidase (Homo sapiens) (UniProt P16278).
T2 sequence (whole entry): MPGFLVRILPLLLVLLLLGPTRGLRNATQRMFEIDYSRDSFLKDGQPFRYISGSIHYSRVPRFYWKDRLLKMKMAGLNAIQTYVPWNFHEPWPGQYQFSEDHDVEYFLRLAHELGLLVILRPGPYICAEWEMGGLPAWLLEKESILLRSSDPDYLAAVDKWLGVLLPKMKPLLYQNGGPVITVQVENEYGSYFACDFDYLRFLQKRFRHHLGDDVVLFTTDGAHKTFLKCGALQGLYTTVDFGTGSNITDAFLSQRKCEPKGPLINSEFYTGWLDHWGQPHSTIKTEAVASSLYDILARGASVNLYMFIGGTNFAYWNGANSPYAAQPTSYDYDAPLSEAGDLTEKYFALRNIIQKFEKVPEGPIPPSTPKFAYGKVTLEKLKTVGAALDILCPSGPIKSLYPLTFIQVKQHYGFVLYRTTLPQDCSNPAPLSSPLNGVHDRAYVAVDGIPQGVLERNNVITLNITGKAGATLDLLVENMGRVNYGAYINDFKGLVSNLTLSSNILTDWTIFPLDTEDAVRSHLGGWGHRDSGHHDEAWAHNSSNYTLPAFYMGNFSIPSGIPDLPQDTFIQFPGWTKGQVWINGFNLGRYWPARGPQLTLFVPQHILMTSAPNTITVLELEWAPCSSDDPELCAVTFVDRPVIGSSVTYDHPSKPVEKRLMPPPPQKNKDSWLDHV
Description: Inhibition of beta-galactosidase at 100 ug/ml.

Experiment [5] relates to alpha-glucosidase (Saccharomyces cerevisiae). Description: Inhibition of alpha-glucosidase at 100 ug/ml after 30 mins.

Regarding `C#C[C@@H](O)/C=C/CCCCCC#CC#CCCCC#CCCCC#CCCCCCC#CC(=O)O`, the result in experiment [1], in experiment [2], in experiment [3] and in experiment [4] was inactive.
In the case of `C#C[C@@H](O)/C=C/CCCCCC#CC#CCCCC#CCCCC#CCCCCCC#CC(=O)OC`, the result in experiment [5] was inactive.
Turning to `C#C/C=C\CCCC#CC#CCCCCCC/C=C\C#C`, in experiment [5], the outcome was inactive.
